# Measured values: patent US7629375B2, “Cytoprotective compounds, pharmaceutical and cosmetic formulations, and methods” (Johnson & Johnson Consumer Companies, Inc., priority 2001, dated 2009)
# System: neonatal cardiomyocytes
# Test: Myocyte calcium-contractility assay
# Assay type: cell-based, rat
# Details: anaerobic chamber 16 hours in DMEM 1 mM glucose, reoxygenation two hours
# Method: A. Isolation and Culture of Primary Neonate Myocytes.
# The following materials are employed: • 10× Heart Dissection Solution (HDS) contains the following components (g/l) in tissue grade water: NaCl, 68; HEPES, 47.6; NaH2PO4, 2; Glucose, 10; KCl, 4; MgSO4, 1, pH adjusted to 7.4. Prior to filter sterilization of diluted (1×HDS) solution, 10 mg phenol red is added to each 500 milliliters of medium. • Transferrin and Bovine Insulin (available from Life Technologies) are resuspended at a concentration of 4 mg/ml in tissue culture grade water. • DMEM-F12—DMEM/F12, powder, 1:1 containing glutamine and pyridoxine hydrochloride (available from Life Technologies). To one liter equivalent of the powder is added 2.43 g of sodium bicarbonate and 10 ml of 100× Penicillin/Streptomycin in 950 ml of tissue culture grade water with stirring. The pH is adjusted to 7.2 with 1M HCl and volume adjusted to 1 liter. The solution is filter sterilized, followed by the addition of 2.5 ml of 4 mg/ml Transferrin, 250 μl 4 mg/ml Insulin and 30.7 mg of bromodeoxyuridine. • DMEM-F12-5% FBS is also prepared for pre-coating the tissue culture plates and initial suspension of the cardiomyocyte pellet. • Collagenase solution-57.1 mg of collagenase is resuspended in 140 ml 1×HDS.
# Tissue culture ware is pre-coated with DMEM-F12-5% FBS by incubating […] per well of a 96-well plate and 0.5 ml per 24-well plate at 37° C.
# Two-day old rat pups are removed from their mothers and placed in a sterile container. Pups are dipped quickly into 70% alcohol, then decapitated and the body placed in an empty sterile tissue culture dish. An incision is made starting at the neck and progressing towards the belly, cutting through the sternum. The heart is removed and placed in a tissue culture dishes containing 1×HDS. The atria are trimmed, and the remaining ventricles are placed into a separate tissue culture dish containing 1×HDS, where they are sectioned into 3-4 pieces each. Ventricles are then transferred to a sterile 250 ml glass flask and the 1×HDS is removed. Twenty milliliters of pre-warmed collagenase solution is added to the ventricles, followed by incubation at 37° C. with shaking. After 20 minutes, the collagenase solution is removed and replaced with 20 ml fresh pre-warmed collagenase. Incubation is continued for an additional 20 minutes. At the end of the incubation, any tissue chunks are allowed to settle prior to removing the collagenase (containing the isolated cardiomyocytes) from the disrupted tissue pieces. The isolated myocytes are added to a 50 ml Falcon tube containing 2 ml Fetal Bovine Serum (FBS). The remaining tissue pieces are subjected to a second digestion by adding 20 ml fresh pre-warmed collagenase and incubating as above for 20 minutes. This second digest is then centrifuged at 1000 rpm for 5 minutes (tabletop centrifuge). The resulting supernatant is discarded, and the cell pellet is suspended with 4 ml FBS. The resulting cell suspension is placed in the incubator at 37° C. This step is repeated several additional times to harvest additional material.
# Percoll gradients are prepared by adding 2.5 ml of 10×HDS to 22.5 ml of Percoll (Life Technologies) with mixing (Percoll Stock). Top Gradient solution (11 ml Percoll Stock and 14 ml 1×HDS) and Bottom Gradient solution (13 ml Percoll Stock and 7 ml 1×HDS) are prepared. Four milliliters of the Top Gradient solution is transferred into 6×15 ml sterile Falcon tubes. Three milliliters of the Bottom Gradient solution is placed in each tube by inserting a serological pipette to the bottom of the tube and slowly adding the liquid.
# All the digests (6) are pooled in one 50 ml Falcon tube and centrifuged on a tabletop centrifuge at 1000 rpm for 10 minutes. The supernatant is discarded, and the cell pellet is resuspended in 12 ml of 1×HDS. Two milliliters of the cell suspension is added to the top of each gradient. […]
row,SMILES,calcium transients (Fluo-4) in amounts indicative of ability guard against ischemic damage and maintain contractile function
1,"COCOc1cc(C=Cc2ccc([N+](=O)[O-])cc2)cc(CC=C(C)C)c1OCOC [1,2-bis-methoxymethoxy-3-(3-methyl-but-2-enyl)-5-[2-(4-nitro-phenyl)-vinyl]-benzene]",presence of calcium transients
2,"COCOc1cc(C=Cc2ccc([N+](=O)[O-])cc2)cc(OCOC)c1CC=C(C)C [1,3-bis-methoxymethoxy-2-(3-methyl-but-2-enyl)-5-[2-(4-nitro-phenyl)-vinyl]-benzene]",presence of calcium transients
3,"COCOc1cc(C=Cc2ccc([N+](=O)[O-])cc2)cc(OCOC)c1 [1,3-bis-methoxymethoxy-5-[2-(4-nitro-phenyl)-vinyl]-benzene]",presence of calcium transients
4,"COCOc1cc(C=Cc2ccc([N+](=O)[O-])cc2)c(CC=C(C)C)c(OCOC)c1 [1,5-bis-methoxymethoxy-2-(3-methyl-but-2-enyl)-3-[2-(4-nitro-phenyl)-vinyl]-benzene]",presence of calcium transients
5,"O=C(O)C(=O)C[n+]1ccc(C=Cc2ccc(O)c(O)c2)cc1.[Br-] [1-(2-Carboxy-2-oxo-ethyl)-4-[2-(3,4-dihydroxy-phenyl)-vinyl]-pyridinium; bromide]",presence of calcium transients
6,"COCOc1c(C/C=C(\C)CCC=C(C)C)cc(C=Cc2ccc([N+](=O)[O-])cc2)cc1OC [1-(3,7-dimethyl-octa-2,6-dienyl)-3-methoxy-2-methoxymethoxy-5-[2-(4-nitro-phenyl)-vinyl]-benzene]",presence of calcium transients
7,COCOc1c(Br)cc(C=Cc2ccc([N+](=O)[O-])cc2)cc1OC [1-bromo-3-methoxy-2-methoxymethoxy-5-[2-(4-nitro-phenyl)-vinyl]-benzene],presence of calcium transients
8,"O=C(O)C[n+]1ccc(C=Cc2ccc(O)c(O)c2)cc1.[Br-] [1-carboxymethyl-4-[2-(3,4-dihydroxy-phenyl)-vinyl]-pyridinium; bromide]",presence of calcium transients
9,COCOc1c(CC=C(C)C)cc(C=Cc2ccc([N+](=O)[O-])cc2)cc1OC [1-methoxy-2-methoxymethoxy-3-(3-methyl-but-2-enyl)-5-[2-(4-nitro-phenyl)-vinyl]-benzene],presence of calcium transients
10,"Cc1cc(C=Cc2ccc([N+](=O)[O-])cc2)cc(C)c1O [2,6-dimethyl-4-[2-(4-nitro-phenyl)-vinyl]-phenol]",presence of calcium transients
11,"COCOc1cc(C=Cc2ccc([N+](=O)[O-])cc2)cc(OCOC)c1CC=C(C)CCC=C(C)C [2-(3,7-dimethyl-octa-2,6-dienyl)-1,3-bis-methoxymethoxy-5-[2-(4-nitro-phenyl)-vinyl]-benzene]",presence of calcium transients
12,"COCOc1ccc(C=Cc2nccs2)cc1OCOC [2-[2-(3,4-bis-methoxymethoxy-phenyl)-vinyl]-thiazole]",presence of calcium transients
13,"O=C1c2ccccc2C(=O)c2cc(C=Cc3ccc(O)c(O)c3)ccc21 [2-[2-(3,4-dihydroxy-phenyl)-vinyl]-anthraquinone]",presence of calcium transients
14,COc1cc(C=Cc2ccc([N+](=O)[O-])cc2)cc(Br)c1O [2-bromo-6-methoxy-4-[2-(4-nitro-phenyl)-vinyl]-phenol],presence of calcium transients
15,"COCOc1ccc(C=CC=Cc2ccc([N+](=O)[O-])cc2)cc1OC [2-methoxy-1-methoxymethoxy-4-[4-(4-nitro-phenyl)-buta-1,3-dienyl]-benzene]",presence of calcium transients
16,"COc1cc(C=CC=Cc2ccc([N+](=O)[O-])cc2)ccc1O [2-methoxy-4-[4-(4-nitro-phenyl)-buta-1,3-dienyl]-phenol]",presence of calcium transients
17,"COCOc1ccc(C=C2C(=O)Oc3ccccc32)cc1OCOC [3-(3,4-bis-methoxymethoxy-benzylidene)-3H-benzofuran-2-one]",presence of calcium transients
18,"CC(C)(C)c1cc(C=C2C(=O)Oc3ccc(O)cc32)cc(C(C)(C)C)c1O [3-(3,5-di-tert-butyl-4-hydroxy-benzylidene)-5-hydroxy-3H-benzofuran-2-one]",presence of calcium transients
19,"O=[N+]([O-])C=Cc1ccc(O)c(O)c1 [4-(2-nitro-vinyl)-benzene-1,2-diol]",presence of calcium transients
20,"CC1=NN(c2ccccc2)C(=O)C1=Cc1ccc(O)c(O)c1 [4-(3,4-dihydroxy-benzylidene)-5-methyl-2-phenyl-2,4-dihydro-pyrazol-3-one]",presence of calcium transients
21,COC(=O)c1ccc(C=Cc2ccc3[nH]cnc3c2)cc1 [4-[2-(1H-benzoimidazol-5-yl)-vinyl]-benzoic acid methyl ester],presence of calcium transients
22,"COCOc1ccc(C=Cc2ccnc(-c3cc(C)ccn3)c2)cc1OCOC [4-[2-(3,4-bis-methoxymethoxy-phenyl)-vinyl]-4′-methyl-[2,2′]bipyridinyl]",presence of calcium transients
23,"COCOc1ccc(/C=C/c2ccc(C(=O)N(CCO)CCO)cc2)cc1OCOC [4-[2-(3,4-bis-methoxymethoxy-phenyl)-vinyl]-N,N-bis-(2-hydroxy-ethyl)-benzamide]",presence of calcium transients
24,"COCOc1ccc(C=Cc2ccc(C(=O)OC)c(C(=O)OC)c2)cc1OCOC [4-[2-(3,4-bis-methoxymethoxy-phenyl)-vinyl]-phthalic acid dimethyl ester]",presence of calcium transients
25,"O=C(c1ccc(C=Cc2ccc(O)c(O)c2)cc1)N(CCO)CCO [4-[2-(3,4-dihydroxy-phenyl)-vinyl]-N,N-bis-(2-hydroxy-ethyl)-benzamide]",presence of calcium transients
26,"O=C(O)c1ccc(C=Cc2ccc(O)c(O)c2)cc1 [4-[2-(3,4-dihydroxy-phenyl)-vinyl]-benzoic acid]",presence of calcium transients
27,"COC(=O)c1ccc(C=Cc2cc(C)c(O)c(C)c2)cc1 [4-[2-(4-hydroxy-3,5-dimethyl-phenyl)-vinyl]-benzoic acid methyl ester]",presence of calcium transients
28,COC(=O)c1ccc(C=Cc2cc(I)c(O)c(OC)c2)cc1 [4-[2-(4-hydroxy-3-iodo-5-methoxy-phenyl)-vinyl]-benzoic acid methyl ester],presence of calcium transients
